From patent US20260166045A1, “COMBINATION THERAPY COMPRISING GSPT1-DIRECTED MOLECULAR GLUE DEGRADERS AND PI3K/AKT/mTOR PATHWAY INHIBITORS” (Monte Rosa Therapeutics, Inc., priority 2022, published 2026)

What was measured:
RAJI cell line = assay: CTG viability, 11x11 concentration matrix, Loewe synergy (lymphoma); conditions: inhibitor combined with compound 1-1, 11x11 matrix, 72 hours
Method: (§7) Cells were cultured in the media recommended by the supplier.
(§8) On the day before compound addition, cells were seeded in 384-well-plates (white with clear flat bottom) at the densities indicated in Table 6 in 40 μL of growth medium. The next day, compounds were dispensed from 10 mM stocks using a HP D300 dispenser according to the concentration matrices described above. For each cell line, the compound concentration matrices were dispensed twice as side-by-side duplicates on one 384-well-plate. In addition, each plate contained 14 wells with only growth medium and 44 wells with cells treated with DMSO alone to calculate the average background and maximal signals, respectively. The final DMSO concentration was normalized to 0.2% across the plates. Plates were then incubated for 72 hours. CellTiter-Glo® Luminescent Cell Viability Assay (CTG, Promega G7570) reagent was prepared according to the manufacturer's instructions. Plates were equilibrated to room temperature for approximately 30 minutes, 25 μL CTG reagent was added to each well and plates were mixed on an orbital shaker for 10 minutes to allow for cell lysis. After further incubation for 20 minutes at room temperature, the clear bottoms of the plates were pasted with white back seal and luminescence was read on an EnVision plate reader (measurement time 0.1 seconds).

DB cell line = assay: as above; conditions: inhibitor combined with compound 1-1, 11x11 matrix, 72 hours
Method: as §7, §8

SU-DHL-6 cell line = assay: as above; conditions: inhibitor combined with compound 1-1, 11x11 matrix, 72 hours
Method: as §7, §8

NCI-H209 cell line = assay: CTG viability, 11x11 concentration matrix, Loewe synergy (SCLC); conditions: inhibitor combined with compound 1-1, 11x11 matrix, 72 hours
Method: as §7, §8

DOHH-2 cell line = assay: CTG viability, 11x11 concentration matrix, Loewe synergy (lymphoma); conditions: inhibitor combined with compound 1-1, 11x11 matrix, 72 hours
Method: as §7, §8

NCI-H1836 cell line = assay: CTG viability, 11x11 concentration matrix, Loewe synergy (SCLC); conditions: inhibitor combined with compound 1-1, 11x11 matrix, 72 hours
Method: as §7, §8

U266B1 cell line = assay: CTG viability, 11x11 concentration matrix, Loewe synergy (multiple myeloma); conditions: inhibitor combined with compound 1-1, 11x11 matrix, 72 hours
Method: as §7, §8

OPM-2 cell line = assay: as above; conditions: inhibitor combined with compound 1-1, 11x11 matrix, 72 hours
Method: as §7, §8

WSU-DLCL2 cell line = assay: CTG viability, 11x11 concentration matrix, Loewe synergy (lymphoma); conditions: inhibitor combined with compound 1-1, 11x11 matrix, 72 hours
Method: as §7, §8

NCI-H1876 cell line = assay: CTG viability, 11x11 concentration matrix, Loewe synergy (SCLC); conditions: inhibitor combined with compound 1-1, 11x11 matrix, 72 hours
Method: as §7, §8

NCI-H69 cell line = assay: as above; conditions: inhibitor combined with compound 1-1, 11x11 matrix, 72 hours
Method: as §7, §8

MM.1S cell line = assay: CTG viability, 11x11 concentration matrix, Loewe synergy (multiple myeloma); conditions: inhibitor combined with compound 1-1, 11x11 matrix, 72 hours
Method: as §7, §8

NCI-H526 cell line = assay: CTG viability, 11x11 concentration matrix, Loewe synergy (SCLC); conditions: inhibitor combined with compound 1-1, 11x11 matrix, 72 hours
Method: as §7, §8

RPMI 8226 cell line = assay: CTG viability, 11x11 concentration matrix, Loewe synergy (multiple myeloma); conditions: inhibitor combined with compound 1-1, 11x11 matrix, 72 hours
Method: as §7, §8

KMS-34 cell line = assay: as above; conditions: inhibitor combined with compound 1-1, 11x11 matrix, 72 hours
Method: as §7, §8

MDA-MB-231 cell line = assay: CellTiter-Glo 2.0 cell viability, 7x7 combination dose response matrix, synergy scoring; format: cell-based; conditions: MDA-MB-231; combined with M2698 41-10000 nM; first compound 0.41-100 nM
Text: (§1) A study was undertaken to determine whether the combination of a GSPT1-directed MGD and an inhibitor of the PI3K/AKT/mTOR pathway could be effective in killing cancer cells and whether certain combination could elicit a greater than additive effect on cell killing.
(§2) FIG. 1 is a flow diagram of the method used to assess cancer cell killing by a combination of a GSPT1-directed MGD and an inhibitor of the PI3K/AKT/mTOR pathway. Certain of the materials and equipment used in the studies are presented in Table 3 and the cell lines used are presented in Table 4.
(§3) All assays were run in triplicate. Each 384-well plate accommodated six 7×7 dose response matrices (FIG. 2). All compound handling was performed using an Echo 650 Series Acoustic Liquid Handler, which enables fully automated, precise, contact-free acoustic transfer in volumes as low as 2.5 nL.
(§4) The following protocol was used for cell plating: • 1. Warm media to room temperature or 37° C. • 2. Prepare complete phenol-free media by adding 10% FBS+1% Pen-Strep to RPMI 1640 Medium or DMEM. • 3. Aspirate media from T175 tissue culture flask and rinse with 10 ml PBS. • 4. Aspirate PBS and add 2 mL 0.25% trypsin. Incubate the flask at 37° C. for 5 min or until cells are detached. • 5. Add 10 mL complete media to the flask to neutralize the trypsin, then collect cells in a 50 mL conical tube. • 6. Centrifuge cells at 300 g for 5 min. Aspirate media and suspend cell pellet in fresh media. Use cell strainer to strain cells into a new 50 mL conical tube. • 7. […] Mix 100 uL cell suspension with 100 uL trypan blue (1:1) and pipette 20 μL of the mixture into each of 2 counting chambers on a slide. Insert slide. • b. Adjust focus and record the live cell count. At least 2 independent measurements should be taken. […] Cell viability should be greater than 90%. […] Dilute cell suspension to the desired concentration (20000 cells/mL) using complete phenol-free media. Prepare 10 mL cell suspension per plate+an extra 10 mL for priming the liquid handler. • 9. Dispense cells into 384-well plates using the liquid handler at 25 uL/well (500 cells/well). 3 plates should be prepared per compound plate to be treated. • 10. Cells should be dispensed into columns 1-23 only. Media only (no cells) should be dispensed into column 24. • 11. Allow plates to rest at RT for 30 minutes before transferring to the incubator. Incubate cells overnight at 37° C., 95% humidity, and 5% CO2.
(§5) Compound plates were prepared as follows using an Echo 650 Series Acoustic Liquid Handler. • 1. A compound plate containing 7-point dose responses of each compound to be treated is first prepared from stock compounds. • 2. The cell plates are treated with compounds according to the following maps, where the first compound is added across all six 7 by 7 dose response matrices, and its concentration varies by row (FIG. 2; top matrix), whereas the second compound varies for each dose response matrix, and its concentration varies by column (FIG. 2; bottom matrix). Each cell plate receives one Compound A and six different Compound Bs. • 3. To prepare a compound plate, 384-well PP plate with stock compounds (highest concentration) is prepared. Compounds are diluted 1:1000 in the cell plates, e.g. 10 mM on compound plate will be 10 uM on cell plate. A 384-well LDV plate with pre-determined volumes of DMSO is prepared. Echo is used to dilute stock compounds from PP plate into LDV plate to prepare 7-point dose responses.
(§6) Compounds were added to the cells and cell viability was measured after 72 hour incubation using CellTiter-Glo 2.0 Cell Viability Assay (Promega): • 1. For a compound addition, Echo is used to transfer 25 nL from the compound plate wells to the cell plates according to the plate maps shown in FIG. 2. Cell plates are treated in triplicate. Each well of the cell plate has 25 uL media (1:1000 dilution). Incubate cells post-treatment at 37° C., 95% humidity, and 5% CO2 for 72 hrs (step 106). • 2. […]

MCF7 cell line = assay: as above; format: cell-based; conditions: MCF7
Text: as §1, §2, §3, §4, §5, §6

MDA-MB-157 cell line = assay: as above; format: cell-based; conditions: combined with M2698 41-10000 nM, first compound 0.41-100 nM
Text: as §1, §2, §3, §4, §5, §6

CAL51 cell line = assay: as above; format: cell-based
Text: as §1, §2, §3, §4, §5, §6

[1] = combined with Alpelisib 41-10000 nM, first compound 0.41-33.33 nM
[2] = combined with Alpelisib 41-10000 nM, first compound 0.41-100 nM
[3] = combined with Capivasertib 41-10000 nM, first compound 0.41-100 nM
[4] = combined with GNE-477 41-10000 nM, first compound 0.41-100 nM
[5] = combined with HS173 41-10000 nM, first compound 0.41-100 nM
[6] = combined with M2698 41-10000 nM, first compound 0.41-100 nM
[7] = combined with Serabelisib 41-10000 nM, first compound 0.41-100 nM
[8] = CAL51, combined with Alpelisib 41-10000 nM, first compound 0.41-33.33 nM
[9] = CAL51, combined with Alpelisib 41-10000 nM, first compound 0.41-100 nM
[10] = CAL51, combined with Capivasertib 41-10000 nM, first compound 0.41-100 nM
[11] = CAL51, combined with GNE-477 41-10000 nM, first compound 0.41-100 nM
[12] = CAL51, combined with HS173 41-10000 nM, first compound 0.41-100 nM
[13] = CAL51, combined with M2698 41-10000 nM, first compound 0.41-100 nM
[14] = CAL51, combined with Serabelisib 41-10000 nM, first compound 0.41-100 nM

In the case of NC1(C(=O)N[C@@H](CCO)c2ccc(Cl)cc2)CCN(c2ncnc3[nH]ccc23)CC1 [Capivasertib, 4-amino-N-[(1S)-1-(4-chlorophenyl)-3-hydroxypropyl]-1-(7H-pyrrolo[2,3-d]pyrimidin-4-yl)piperidine-4-carboxamide], the “Mean Loewe synergy score, RAJI” value (RAJI cell line) is reported as 2.97, the “Mean Loewe synergy score, DB” value (DB cell line) is reported as 0.29 and the “Mean Loewe synergy score, SUDHL6” value (SU-DHL-6 cell line) is reported as −1.92. The “Mean Loewe synergy score, NCI-H209” value (NCI-H209 cell line) was 0.85, the “Mean Loewe synergy score, DOHH2” value (DOHH-2 cell line) was 2.89 and the “Mean Loewe synergy score, NCI-H1836” value (NCI-H1836 cell line) was 1.9. The “Mean Loewe synergy score, U266B1” value (U266B1 cell line) was 1.76, the “Mean Loewe synergy score, OPM-2” value (OPM-2 cell line) was −1 and the “Mean Loewe synergy score, WSU-DLCL2” value (WSU-DLCL2 cell line) was 0.95. For the same compound, the “Mean Loewe synergy score, NCI-H1876” value (NCI-H1876 cell line) was 0.7, the “Mean Loewe synergy score, NCI-H69” value (NCI-H69 cell line) was 7.38 and the “Mean Loewe synergy score, MM.1S” value (MM.1S cell line) was 2.63. For the same compound, the “Mean Loewe synergy score, NCI-H526” value (NCI-H526 cell line) was 4.3, the “Mean Loewe synergy score, RPMI 8226” value (RPMI 8226 cell line) was 4.81 and the “Mean Loewe synergy score, KMS-34” value (KMS-34 cell line) was 7.48.
In the case of Nc1cc(C(F)(F)F)c(-c2cc(N3CCOCC3)nc(N3CCOCC3)n2)cn1 [buparlisib, 5-(2,6-dimorpholin-4-ylpyrimidin-4-yl)-4-(trifluoromethyl)pyridin-2-amine], the “Mean Loewe synergy score, RAJI” value (RAJI cell line) is reported as 1.34, the “Mean Loewe synergy score, DB” value (DB cell line) is reported as 1.26 and the “Mean Loewe synergy score, SUDHL6” value (SU-DHL-6 cell line) is reported as −2.5. For the same compound, the “Mean Loewe synergy score, NCI-H209” value (NCI-H209 cell line) was 0.78, the “Mean Loewe synergy score, DOHH2” value (DOHH-2 cell line) was 1.11 and the “Mean Loewe synergy score, NCI-H1836” value (NCI-H1836 cell line) was 1.64. The “Mean Loewe synergy score, U266B1” value (U266B1 cell line) was −0.19, the “Mean Loewe synergy score, OPM-2” value (OPM-2 cell line) was −1.38 and the “Mean Loewe synergy score, WSU-DLCL2” value (WSU-DLCL2 cell line) was −3.1. For the same compound, the “Mean Loewe synergy score, NCI-H1876” value (NCI-H1876 cell line) was 0.017, the “Mean Loewe synergy score, NCI-H69” value (NCI-H69 cell line) was 4.09 and the “Mean Loewe synergy score, MM.1S” value (MM.1S cell line) was 1.48. For the same compound, the “Mean Loewe synergy score, NCI-H526” value (NCI-H526 cell line) was −0.21, the “Mean Loewe synergy score, RPMI 8226” value (RPMI 8226 cell line) was 3.57 and the “Mean Loewe synergy score, KMS-34” value (KMS-34 cell line) was 5.94.
Cc1cc(C)cc(NC(=O)OCc2ccc3c(c2)C(=O)N(C2CCC(=O)NC2=O)C3)c1 (centres unmarked) [Compound 1-4, [2-(2,6-dioxopiperidin-3-yl)-3-oxo-2,3-dihydro-1H-isoindol-5-yl]methyl N-(3,5-dimethylphenyl)carbamate] was tested, and the “Mean Bliss synergy score” value (MDA-MB-231 cell line) was 2.10, the “Mean Loewe synergy score” value (MDA-MB-231 cell line) was 2.36 and the “Mean Bliss synergy score” value (MCF7 cell line; [1]) was 9.41. For the same compound, the “Mean Loewe synergy score” value (MCF7 cell line; [1]) was 7.90, the “Mean Bliss synergy score” value (MCF7 cell line; [2]) was 17.96 and the “Mean Loewe synergy score” value (MCF7 cell line; [2]) was 9.59. The “Mean Bliss synergy score” value (MCF7 cell line; [3]) was 17.17, the “Mean Loewe synergy score” value (MCF7 cell line; [3]) was 9.85 and the “Mean Bliss synergy score” value (MCF7 cell line; [4]) was 9.39. For the same compound, the “Mean Loewe synergy score” value (MCF7 cell line; [4]) was 7.58, the “Mean Bliss synergy score” value (MCF7 cell line; [5]) was 3.51 and the “Mean Loewe synergy score” value (MCF7 cell line; [5]) was 1.27. The “Mean Bliss synergy score” value (MCF7 cell line; [6]) was 14.55, the “Mean Loewe synergy score” value (MCF7 cell line; [6]) was 7.79 and the “Mean Bliss synergy score” value (MCF7 cell line; [7]) was 4.26. The “Mean Loewe synergy score” value (MCF7 cell line; [7]) was 1.36, the “Mean Bliss synergy score” value (MDA-MB-157 cell line) was 4.94 and the “Mean Loewe synergy score” value (MDA-MB-157 cell line) was 5.54. The “Mean Bliss synergy score” value (CAL51 cell line; [8]) was 10.76, the “Mean Loewe synergy score” value (CAL51 cell line; [8]) was 7.63 and the “Mean Bliss synergy score” value (CAL51 cell line; [9]) was 36.63. For the same compound, the “Mean Loewe synergy score” value (CAL51 cell line; [9]) was 11.29, the “Mean Bliss synergy score” value (CAL51 cell line; [10]) was 30.43 and the “Mean Loewe synergy score” value (CAL51 cell line; [10]) was 14.67. For the same compound, the “Mean Bliss synergy score” value (CAL51 cell line; [11]) was 15.82, the “Mean Loewe synergy score” value (CAL51 cell line; [11]) was 6.64 and the “Mean Bliss synergy score” value (CAL51 cell line; [12]) was 8.74. The “Mean Loewe synergy score” value (CAL51 cell line; [12]) was 1.29, the “Mean Bliss synergy score” value (CAL51 cell line; [13]) was 16.31 and the “Mean Loewe synergy score” value (CAL51 cell line; [13]) was 8.47. For the same compound, the “Mean Bliss synergy score” value (CAL51 cell line; [14]) was 5.71, the “Mean Loewe synergy score” value (CAL51 cell line; [14]) was −1.80 and the “Mean Bliss synergy score” value (CAL51 cell line; combined with Alpelisib (41 nM to 10 uM), CAL51 cell line, mean across dose response matrix, 72 hrs) was 36.63.
In the case of CC[C@H](Nc1ncnc2nc[nH]c12)c1nc2cccc(F)c2c(=O)n1-c1ccccc1 [idelalisib, 5-fluoro-3-phenyl-2-[(1S)-1-(7H-purin-6-ylamino)propyl]quinazolin-4-one], the “Mean Loewe synergy score, RAJI” value (RAJI cell line) is reported as 3.47, the “Mean Loewe synergy score, DB” value (DB cell line) is reported as −3.25 and the “Mean Loewe synergy score, SUDHL6” value (SU-DHL-6 cell line) is reported as 5.75. For the same compound, the “Mean Loewe synergy score, DOHH2” value (DOHH-2 cell line) was 4.04 and the “Mean Loewe synergy score, WSU-DLCL2” value (WSU-DLCL2 cell line) was −2.08.
